The values below come from patent publication US20070082883A1, “HIV protease inhibitors” (THE BOARD OF TRUSTEES OF THE UNIVERSITY OF ILLINOIS, priority 2002, published 2007).

This test has as its target T1, HIV-1 protease (Human immunodeficiency virus type 1 group M subtype B, UniProt P04585).
T1 construct: made in house; host or cells: E. coli BL21 (dE3)pLysS, pET30a vector
As to the kind of experiment: HIV-1 Protease Inhibition Assay. It counts as biochemical. Conditions: fluorogenic substrate assay. An excerpt:
Assays of the dose-response effect of inhibitor compounds can be described as a curve expressing a degree of inhibition as a function of concentration. The curve theoretically passes through a point at which the concentration is sufficient to reduce activity of the HIV protease enzyme to a level that is 50% that of the difference between minimal and maximal enzyme activity in the assay.
HIV-1 Protease Inhibition Assay
The HIV-1 protease gene was subcloned into the pET30a vector (Novagen) and then transformed into BL21 (dE3)pLysS cells for protein expression. Protein expression and purification were followed according to Tang's procedure (Hong et al., Biochemistry, 1996, 35, 10627-10633). […] The inclusion body containing some bacterial proteins was thoroughly washed by using TRITON X-100, solubilized in […] and passed through the Q-sepharose column to remove the bacterial proteins which interfered with subsequent refolding steps. HIV-1 protease was refolded from the urea to an active form by dialysis. As a final step, gel filtration chromatography was used to remove impurities after refolding. Activities of purified HIV-1 protease were examined using a fluorogenic substrate, 2-aminobenzoyl-Thr-Ile-Nle-Phe(pNO2)-Gln-Arg-NH2 (Novabiochem). […] In the condition of So<<Km, v=Eo(kcat/Km)So, where Eo is the total enzyme concentration, and So is the substrate concentrate. […] Assays are carried out as described by Toth and Marshall (Toth et al., Int. J. Pept. Protein Res., 1990, 36, 544-50).

The IC50 is the midpoint of a concentration-inhibition curve. A higher IC50 goes with lower potency. As a reminder, the Ki is the equilibrium dissociation constant of an inhibitor or competing ligand from its target. Read a low Ki as tighter binding.

Compound `Cc1ccc(S(=O)(=O)N(CC(C)C)C[C@@H](O)[C@H](Cc2ccccc2)NC(=O)OC2CC3CCO[C@@H]3C2)cc1` (stereo partly drawn) [Compound 131] had a 50% inhibitory concentration (IC50) of 1.4 nM.

As to `CC(C)CN(C[C@@H](O)[C@H](Cc1ccccc1)NC(=O)OC1CC2CCO[C@@H]2C1)S(=O)(=O)c1cccc2cccnc12` (stereo partly drawn) [Compound 132], 12 nM corresponded to half-maximal inhibition (IC50) and the Ki was 3.7 nM.

In turn, `CC(C)CN(C[C@@H](O)[C@H](Cc1ccccc1)NC(=O)OC1CC2CCO[C@@H]2C1)S(=O)(=O)Cc1ccccc1` (stereo partly drawn) [Compound 133] registered a half-inhibitory concentration (IC50) of 48 nM and a Ki of 15 nM.

`CC(C)CN(C[C@@H](O)[C@H](Cc1ccccc1)NC(=O)OC1CC2CCO[C@@H]2C1)C(=O)c1cc(O)cc(O)c1` (stereo partly drawn) [Compound 134] came in with a half-maximal inhibitory concentration (IC50) of 3000 nM and an inhibition constant Ki of 931 nM.

In the case of `CC(C)CN(C[C@@H](O)[C@H](Cc1ccccc1)NC(=O)OC(C)(C)C)S(=O)(=O)c1ccc(CN2CCN(C)CC2)cc1` [Compound 137], 2100 nM corresponded to half-maximal inhibition (IC50).

The compound `CC(C)CN(C[C@@H](O)[C@H](Cc1ccccc1)NC(=O)O[C@H]1CCOC1)S(=O)(=O)c1ccc(CN2CCN(C)CC2)cc1` [Compound 138] returned a 50% inhibitory concentration (IC50) of 270 nM.

As to `CC(C)CN(C[C@@H](O)[C@H](Cc1ccccc1)NC(=O)O[C@H]1CCOC1)S(=O)(=O)c1ccc(CN2CCOCC2)cc1` [Compound 139], the IC50 was 968 nM.

As to `CC(C)(C)NC(=O)[C@@H]1C[C@@H]2CCCC[C@@H]2CN1C[C@@H](O)[C@H](Cc1ccccc1)NC(=O)OC1CC2CCO[C@@H]2C1` (stereo partly drawn) [Compound 143], the IC50 was 3 nM.

In turn, `CC(C)(C)NC(=O)[C@@H]1C[C@@H]2CCCC[C@@H]2CN1C[C@@H](O)[C@H](Cc1ccccc1)NC(=O)O[C@H]1CCC2(CCCO2)C1` (stereo partly drawn) [Compound 145a] showed an IC50 of 500 nM.

Take `CC(C)(C)NC(=O)[C@@H]1C[C@@H]2CCCC[C@@H]2CN1C[C@@H](O)[C@H](Cc1ccccc1)NC(=O)OC1CC[C@@]2(CCCO2)C1` (stereo partly drawn) [Compound 145b]: the concentration for half-maximal inhibition (IC50) was > 2000 nM.

The compound `COc1ccc(S(=O)(=O)N(CC(C)C)C[C@@H](O)[C@H](Cc2ccccc2)NC(=O)OC2CC[C@@]3(CCCO3)C2)cc1` (stereo partly drawn) [Compound 145c] came in with a concentration for half-maximal inhibition (IC50) of 15 nM.

In turn, `COc1ccc(S(=O)(=O)N(CC(C)C)C[C@@H](O)[C@H](Cc2ccccc2)NC(=O)O[C@H]2CC[C@]3(CCCO3)C2)cc1` [Compound 145d] returned a concentration for half-maximal inhibition (IC50) of 4.6 nM.

Take `Cc1ccc(S(=O)(=O)N(CC(C)C)C[C@@H](O)[C@H](CC2CCN(C(=O)c3ccccc3)CC2)NC(=O)OC2CO[C@H]3OCCC23)cc1` (stereo partly drawn) [Compound 146]: the 50% inhibitory concentration (IC50) worked out at 1.8 nM.

For `Cc1ccc(S(=O)(=O)N(CC(C)C)C[C@@H](O)[C@H](CC2CCN(C(=O)c3ccccc3)CC2)NC(=O)O[C@H]2CCOC2)cc1` [Compound 147], the IC50 is 60 nM.

The compound `Cc1ccc(S(=O)(=O)N(CC(C)C)C[C@@H](O)[C@H](CC2CCN(C(=O)c3ccccc3)CC2)NC(=O)OC2CCCC23CCCO3)cc1` (stereo partly drawn) [Compound 148] yielded an IC50 of 185 nM.

Compound `Cc1ccc(S(=O)(=O)N(CC(C)C)C[C@@H](O)[C@H](CC2CCN(Cc3ccccc3)CC2)NC(=O)OC2CO[C@H]3OCCC23)cc1` (stereo partly drawn) [Compound 149] registered an IC50 of 20 nM.

For `Cc1ccc(S(=O)(=O)N(CC(C)C)C[C@@H](O)[C@H](CC2CCN(Cc3ccccc3)CC2)NC(=O)O[C@H]2CCOC2)cc1` [Compound 150], the IC50 came out at 540 nM.

Regarding `CC(C)CN(C[C@@H](O)[C@H](Cc1ccccc1)NC(=O)OC1CO[C@H]2OCCC12)S(=O)(=O)c1ccc(Cl)c(O)c1` (stereo partly drawn) [Compound 151], the IC50 was 3.1 nM and the inhibition constant Ki is 1 nM.

In the case of `CC(C)CN(C[C@@H](O)[C@H](Cc1ccccc1)NC(=O)OC1CC2CCO[C@@H]2C1)S(=O)(=O)c1ccc(Cl)c(O)c1` (stereo partly drawn) [Compound 152], the IC50 worked out at 5.2 nM and the inhibition constant Ki stood at 1.8 nM.

In turn, `CC(C)CN(C[C@@H](O)[C@H](Cc1ccccc1)NC(=O)O[C@H]1CCOC1)S(=O)(=O)c1ccc(Cl)c(O)c1` [Compound 153] returned an IC50 of 3.6 nM and a Ki of 1.1 nM.

With `O=C(N[C@@H](Cc1ccccc1)[C@H](O)CN(CCN1CCOCC1)S(=O)(=O)c1ccc(Cl)c(O)c1)OC1CO[C@H]2OCCC12` (stereo partly drawn) [Compound 154], the IC50 was 25 nM and the inhibition constant (Ki) is 7.8 nM.

For the compound `O=C(N[C@@H](Cc1ccccc1)[C@H](O)CN(CCN1CCOCC1)S(=O)(=O)c1ccc(Cl)c(O)c1)OC1CC2CCO[C@@H]2C1` (stereo partly drawn) [Compound 155], the IC50 was found to be 16 nM and the affinity, expressed as Ki, was 4.9 nM.

In turn, `Cc1ccc(S(=O)(=O)N(CC(C)C)C[C@@H](O)[C@H](Cc2ccccc2)NC(=O)OC2CO[C@H]3OCCC23)cc1CO` (stereo partly drawn) [Compound 156] had an IC50 of 3.1 nM and a Ki of 0.97 nM.

For the compound `Cc1ccc(S(=O)(=O)N(CC(C)C)C[C@@H](O)[C@H](Cc2ccccc2)NC(=O)OC2CC3CCO[C@@H]3C2)cc1CO` (stereo partly drawn) [Compound 157], the IC50 was determined as 2.8 nM and the affinity corresponds to a Ki of 0.87 nM.

Regarding `Cc1ccc(S(=O)(=O)N(CCN(C)C)C[C@@H](O)[C@H](Cc2ccccc2)NC(=O)OC2CO[C@H]3OCCC23)cc1CO` (stereo partly drawn) [Compound 158], the IC50 was determined as 105 nM and the Ki came out at 32 nM.

Regarding `Cc1ccc(S(=O)(=O)N(CCN(C)C)C[C@@H](O)[C@H](Cc2ccccc2)NC(=O)O[C@H]2C[C@H]3CCO[C@H]3C2)cc1CO` [Compound 159], the concentration for half-maximal inhibition (IC50) was found to be 204 nM and the affinity corresponds to a Ki of 63 nM.

In the case of `Cc1ccc(S(=O)(=O)N(CCN(C)C)C[C@@H](O)[C@H](Cc2ccccc2)NC(=O)O[C@@H]2CO[C@@H]3OCCC[C@@H]32)cc1CO` [Compound 160], the IC50 was found to be 231 nM and the Ki was 72 nM.

`Cc1ccc(S(=O)(=O)N(C[C@@H](O)[C@H](Cc2ccccc2)NC(=O)OC2CO[C@H]3OCCC23)C2CCOC2)cc1CO` (stereo partly drawn) [Compound 161] yielded a concentration for half-maximal inhibition (IC50) of 2 nM and a Ki of 1.6 nM.

Take `Cc1ccc(S(=O)(=O)N(C[C@@H](O)[C@H](Cc2ccccc2)NC(=O)OC2CC3CCO[C@@H]3C2)C2CCOC2)cc1CO` (stereo partly drawn) [Compound 162]: half-maximal inhibition (IC50) was put at 4.1 nM and the inhibition constant (Ki) is 1.3 nM.

The compound `CC(C)CN(C[C@@H](O)[C@H](Cc1ccccc1)NC(=O)OC(C)(C)C)S(=O)(=O)c1cncc([N+](=O)[O-])c1` [Compound 163] gave an IC50 of 115 nM and a Ki of 36 nM.

In the case of `CC(C)CN(C[C@@H](O)[C@H](Cc1ccccc1)NC(=O)OC(C)(C)C)S(=O)(=O)c1cncc(N)c1` [Compound 164], the IC50 amounted to 33 nM and the affinity corresponds to a Ki of 10 nM.

`CC(C)CN(C[C@@H](O)[C@H](Cc1ccccc1)NC(=O)OC1CO[C@H]2OCCC12)S(=O)(=O)c1cncc([N+](=O)[O-])c1` (stereo partly drawn) [Compound 165] gave a half-inhibitory concentration (IC50) of 3.5 nM and a Ki of 1 nM.

As to `CC(C)CN(C[C@@H](O)[C@H](Cc1ccccc1)NC(=O)OC1CO[C@H]2OCCC12)S(=O)(=O)c1cncc(N)c1` (stereo partly drawn) [Compound 166], the IC50 stood at 0.91 nM and the Ki amounted to 0.28 nM.

The compound `CC(C)CN(C[C@@H](O)[C@H](Cc1ccccc1)NC(=O)OC1CC2CCO[C@@H]2C1)S(=O)(=O)c1cncc([N+](=O)[O-])c1` (stereo partly drawn) [Compound 167] came in with an IC50 of 4.5 nM and a Ki of 1.4 nM.

In turn, `CC(C)CN(C[C@@H](O)[C@H](Cc1ccccc1)NC(=O)OC1CC2CCO[C@@H]2C1)S(=O)(=O)c1cncc(N)c1` (stereo partly drawn) [Compound 168] showed a concentration for half-maximal inhibition (IC50) of 2.5 nM and an inhibition constant (Ki) of 0.8 nM.

`CC(C)CN(C[C@@H](O)[C@H](Cc1ccccc1)NC(=O)O[C@H]1CCOC1)S(=O)(=O)c1cncc([N+](=O)[O-])c1` [Compound 169] came in with a half-maximal inhibitory concentration (IC50) of 7.1 nM and an inhibition constant Ki of 22 nM.

For the compound `CC(C)CN(C[C@@H](O)[C@H](Cc1ccccc1)NC(=O)O[C@H]1CCOC1)S(=O)(=O)c1cncc(N)c1` [Compound 170], the IC50 worked out at 2.4 nM and the Ki amounted to 0.74 nM.

The compound `CC(C)CN(C[C@@H](O)[C@H](Cc1ccccc1)NC(=O)O[C@H]1C[C@H]2CCO[C@H]2C1)S(=O)(=O)c1cncc([N+](=O)[O-])c1` [Compound 171] yielded an IC50 of 14 nM and a Ki of 4.3 nM.

Take `CC(C)CN(C[C@@H](O)[C@H](Cc1ccccc1)NC(=O)O[C@H]1C[C@H]2CCO[C@H]2C1)S(=O)(=O)c1cncc(N)c1` [Compound 172]: the IC50 is 5.1 nM and the affinity corresponds to a Ki of 1.6 nM.

In the case of `CC(C)CN(C[C@@H](O)[C@H](Cc1ccccc1)NC(=O)OC1CC2CCO[C@@H]2C1)S(=O)(=O)c1ccc(F)c(N)c1` (stereo partly drawn) [Compound 179], the midpoint of inhibition, the IC50, lay at 6.4 nM and the inhibition constant (Ki) worked out at 2 nM.

On to `CN(C)CCN(C[C@@H](O)[C@H](Cc1ccccc1)NC(=O)OC1CC2CCO[C@@H]2C1)S(=O)(=O)c1ccc(F)c(N)c1` (stereo partly drawn) [Compound 180], for which the half-maximal inhibitory concentration (IC50) was found to be 1500 nM and the Ki came out at 472 nM.

`CC(C)CN(C[C@@H](O)[C@H](Cc1ccccc1)NC(=O)O[C@H]1CCOC1)S(=O)(=O)c1ccc(F)c([N+](=O)[O-])c1` [Compound 181] yielded an IC50 of 145 nM and a Ki of 45 nM.

For `CC(C)CN(C[C@@H](O)[C@H](Cc1ccccc1)NC(=O)O[C@H]1CCOC1)S(=O)(=O)c1ccc(F)c(N)c1` [Compound 182], the IC50 stood at 4.6 nM and the inhibitory constant (Ki) is 1.4 nM.
